Test results published in patent US20230120564A1, “PYRIDO[3,4-D]PYRIMIDINE DERIVATIVE AND THERAPEUTIC PHARMACEUTIC COMPOSITION COMPRISING SAME” (KOREA INSTITUTE OF SCIENCE AND TECHNOLOGY, priority 2020, published 2023).

Columns and labels:
Test in all cases: full kinase panel biochemical assay
TAOK3/JIK = TAOK3/JIK (Homo sapiens, UniProt Q9H2K8); details: single concentration of 1 μM; read-out: percent inhibition of TAOK3/JIK
Description: (§1) In order to measure the protein kinase inhibitory activity (% inhibition) of the compound of the present invention, biochemical assay was performed in the full kinase panel. As a test compound, Compound No. 4 was used. The percent inhibition of each kinase when treated with the test compound at a single concentration of 1 μM was measured, and the residual enzyme activity values (%) of the kinases were calculated. Kinases whose calculated residual enzyme activity values (%) was 30% or less (i.e., kinases inhibited by 70% or more) are as follows: ABL1, ABL2/ARG, ACK1, ARAF, BLK, BMX/ETK, BRAF, BRK, BTK, c-Kit, c-Src, CSK, DDR1, DDR2, EPHA1, EPHA2, EPHA3, EPHA4, EPHA5, EPHA6, EPHA7, EPHA8, EPHB1, EPHB2, EPHB3, EPHB4, ERBB2/HER2, ERBB4/HER4, FGFR1, FGFR2, FGFR3, FGR, FLT1/VEGFR1, FLT4/VEGFR3, FMS, FRK/PTK5, FYN, GCK/MAP4K2, HCK, HGK/MAP4K4, JAK1, JAK2, KDR/VEGFR2, KHS/MAP4K5, LCK, LYN, LYN B, MEKK1, MLK4, MYLK3, NEK5, P38a/MAPK14, P38b/MAPK11, PDGFRa, PDGFRb, PEAK1, RET, RIPK2, RIPK4, SIK2, SRPK1, TAOK3/JIK, TLK1, TNK1, TXK, TYK2, YES/YES1, YSK4/MAP3K19, and ZAK/MLTK.

LYN B = LYN B (Homo sapiens, UniProt P07948); details: single concentration of 1 μM; read-out: percent inhibition of LYN B
Description: as §1

LYN = LYN (Homo sapiens, UniProt P07948); details: single concentration of 1 μM; read-out: percent inhibition of LYN
Description: as §1

DDR2 = DDR2 (Homo sapiens, UniProt Q16832); details: single concentration of 1 μM; read-out: percent inhibition of DDR2
Description: as §1

EPHA4 = EPHA4 (Homo sapiens, UniProt P54764); details: single concentration of 1 μM; read-out: percent inhibition of EPHA4
Description: as §1

ERBB2/HER2 = ERBB2/HER2 (Homo sapiens, UniProt P04626); details: single concentration of 1 μM; read-out: percent inhibition of ERBB2/HER2
Description: as §1

PDGFRa = PDGFRa (Homo sapiens, UniProt P16234); details: single concentration of 1 μM; read-out: percent inhibition of PDGFRa
Description: as §1

GCK/MAP4K2 = GCK/MAP4K2 (Homo sapiens, UniProt Q12851); details: single concentration of 1 μM; read-out: percent inhibition of GCK/MAP4K2
Description: as §1

TNK1 = TNK1 (Homo sapiens, UniProt Q13470); details: single concentration of 1 μM; read-out: percent inhibition of TNK1
Description: as §1

JAK1 = JAK1 (Homo sapiens, UniProt P23458); details: single concentration of 1 μM; read-out: percent inhibition of JAK1
Description: as §1

EPHA1 = EPHA1 (Homo sapiens, UniProt P21709); details: single concentration of 1 μM; read-out: percent inhibition of EPHA1
Description: as §1

P38a/MAPK14 = P38a/MAPK14 (Homo sapiens, UniProt Q16539); details: single concentration of 1 μM; read-out: percent inhibition of P38a/MAPK14
Description: as §1

c-Kit = c-Kit (Homo sapiens, UniProt P10721); details: single concentration of 1 μM; read-out: percent inhibition of c-Kit
Description: as §1

HGK/MAP4K4 = HGK/MAP4K4 (Homo sapiens, UniProt O95819); details: single concentration of 1 μM; read-out: percent inhibition of HGK/MAP4K4
Description: as §1

EPHB1 = EPHB1 (Homo sapiens, UniProt P54762); details: single concentration of 1 μM; read-out: percent inhibition of EPHB1
Description: as §1

PEAK1 = PEAK1 (Homo sapiens, UniProt Q9H792); details: single concentration of 1 μM; read-out: percent inhibition of PEAK1
Description: as §1

ABL1 = ABL1 (Homo sapiens, UniProt P00519); details: single concentration of 1 μM; read-out: percent inhibition of ABL1
Description: as §1

SRPK1 = SRPK1 (Homo sapiens, UniProt Q96SB4); details: single concentration of 1 μM; read-out: percent inhibition of SRPK1
Description: as §1

TLK1 = TLK1 (Homo sapiens, UniProt Q9UKI8); details: single concentration of 1 μM; read-out: percent inhibition of TLK1
Description: as §1

BTK = BTK (Homo sapiens, UniProt Q06187); details: single concentration of 1 μM; read-out: percent inhibition of BTK
Description: as §1

FLT4/VEGFR3 = FLT4/VEGFR3 (Homo sapiens, UniProt P35916); details: single concentration of 1 μM; read-out: percent inhibition of FLT4/VEGFR3
Description: as §1

PDGFRb = PDGFRb (Homo sapiens, UniProt P09619); details: single concentration of 1 μM; read-out: percent inhibition of PDGFRb
Description: as §1

SIK2 = SIK2 (Homo sapiens, UniProt Q9H0K1); details: single concentration of 1 μM; read-out: percent inhibition of SIK2
Description: as §1

EPHA5 = EPHA5 (Homo sapiens, UniProt P54756); details: single concentration of 1 μM; read-out: percent inhibition of EPHA5
Description: as §1

Measured: inhibition at 1 µM

Sequence of P38a/MAPK14 (Q16539 whole entry): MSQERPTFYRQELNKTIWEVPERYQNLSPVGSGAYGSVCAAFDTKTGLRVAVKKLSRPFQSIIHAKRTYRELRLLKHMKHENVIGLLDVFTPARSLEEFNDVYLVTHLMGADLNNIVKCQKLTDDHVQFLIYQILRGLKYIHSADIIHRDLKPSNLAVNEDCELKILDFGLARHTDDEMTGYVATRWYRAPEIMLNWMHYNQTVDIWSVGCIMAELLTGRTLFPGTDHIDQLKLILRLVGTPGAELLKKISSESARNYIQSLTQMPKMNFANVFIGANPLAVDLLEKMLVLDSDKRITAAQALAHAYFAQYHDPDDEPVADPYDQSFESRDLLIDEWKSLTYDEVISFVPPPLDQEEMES
Sequence of PDGFRa (P16234 24-1089): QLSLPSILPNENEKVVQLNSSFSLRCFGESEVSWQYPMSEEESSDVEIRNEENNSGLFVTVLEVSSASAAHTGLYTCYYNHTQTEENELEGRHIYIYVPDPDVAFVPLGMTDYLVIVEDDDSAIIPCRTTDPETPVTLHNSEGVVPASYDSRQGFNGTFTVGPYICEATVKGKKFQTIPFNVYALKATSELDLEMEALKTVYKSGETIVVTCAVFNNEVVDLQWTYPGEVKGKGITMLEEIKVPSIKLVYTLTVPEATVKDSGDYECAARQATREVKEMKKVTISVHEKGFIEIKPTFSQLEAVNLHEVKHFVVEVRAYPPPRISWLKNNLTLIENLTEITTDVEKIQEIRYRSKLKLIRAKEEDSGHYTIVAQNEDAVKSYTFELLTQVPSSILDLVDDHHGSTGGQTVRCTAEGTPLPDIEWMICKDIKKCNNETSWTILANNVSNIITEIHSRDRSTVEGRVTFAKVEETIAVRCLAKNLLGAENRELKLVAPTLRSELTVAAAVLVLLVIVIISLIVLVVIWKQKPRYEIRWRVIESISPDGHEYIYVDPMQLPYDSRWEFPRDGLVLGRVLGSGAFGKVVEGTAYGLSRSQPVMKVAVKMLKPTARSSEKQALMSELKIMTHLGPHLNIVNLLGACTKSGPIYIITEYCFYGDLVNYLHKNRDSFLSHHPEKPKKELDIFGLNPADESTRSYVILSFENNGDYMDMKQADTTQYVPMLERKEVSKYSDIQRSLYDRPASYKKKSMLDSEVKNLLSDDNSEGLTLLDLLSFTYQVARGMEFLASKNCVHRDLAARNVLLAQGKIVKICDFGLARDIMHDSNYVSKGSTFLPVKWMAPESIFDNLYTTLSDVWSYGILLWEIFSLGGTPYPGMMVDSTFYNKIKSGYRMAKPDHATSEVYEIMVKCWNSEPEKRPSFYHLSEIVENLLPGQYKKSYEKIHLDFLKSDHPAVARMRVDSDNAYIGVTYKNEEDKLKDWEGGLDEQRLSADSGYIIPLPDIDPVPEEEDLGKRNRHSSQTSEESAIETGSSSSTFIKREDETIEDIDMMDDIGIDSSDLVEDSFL
Sequence of FLT4/VEGFR3 (P35916 25-1363): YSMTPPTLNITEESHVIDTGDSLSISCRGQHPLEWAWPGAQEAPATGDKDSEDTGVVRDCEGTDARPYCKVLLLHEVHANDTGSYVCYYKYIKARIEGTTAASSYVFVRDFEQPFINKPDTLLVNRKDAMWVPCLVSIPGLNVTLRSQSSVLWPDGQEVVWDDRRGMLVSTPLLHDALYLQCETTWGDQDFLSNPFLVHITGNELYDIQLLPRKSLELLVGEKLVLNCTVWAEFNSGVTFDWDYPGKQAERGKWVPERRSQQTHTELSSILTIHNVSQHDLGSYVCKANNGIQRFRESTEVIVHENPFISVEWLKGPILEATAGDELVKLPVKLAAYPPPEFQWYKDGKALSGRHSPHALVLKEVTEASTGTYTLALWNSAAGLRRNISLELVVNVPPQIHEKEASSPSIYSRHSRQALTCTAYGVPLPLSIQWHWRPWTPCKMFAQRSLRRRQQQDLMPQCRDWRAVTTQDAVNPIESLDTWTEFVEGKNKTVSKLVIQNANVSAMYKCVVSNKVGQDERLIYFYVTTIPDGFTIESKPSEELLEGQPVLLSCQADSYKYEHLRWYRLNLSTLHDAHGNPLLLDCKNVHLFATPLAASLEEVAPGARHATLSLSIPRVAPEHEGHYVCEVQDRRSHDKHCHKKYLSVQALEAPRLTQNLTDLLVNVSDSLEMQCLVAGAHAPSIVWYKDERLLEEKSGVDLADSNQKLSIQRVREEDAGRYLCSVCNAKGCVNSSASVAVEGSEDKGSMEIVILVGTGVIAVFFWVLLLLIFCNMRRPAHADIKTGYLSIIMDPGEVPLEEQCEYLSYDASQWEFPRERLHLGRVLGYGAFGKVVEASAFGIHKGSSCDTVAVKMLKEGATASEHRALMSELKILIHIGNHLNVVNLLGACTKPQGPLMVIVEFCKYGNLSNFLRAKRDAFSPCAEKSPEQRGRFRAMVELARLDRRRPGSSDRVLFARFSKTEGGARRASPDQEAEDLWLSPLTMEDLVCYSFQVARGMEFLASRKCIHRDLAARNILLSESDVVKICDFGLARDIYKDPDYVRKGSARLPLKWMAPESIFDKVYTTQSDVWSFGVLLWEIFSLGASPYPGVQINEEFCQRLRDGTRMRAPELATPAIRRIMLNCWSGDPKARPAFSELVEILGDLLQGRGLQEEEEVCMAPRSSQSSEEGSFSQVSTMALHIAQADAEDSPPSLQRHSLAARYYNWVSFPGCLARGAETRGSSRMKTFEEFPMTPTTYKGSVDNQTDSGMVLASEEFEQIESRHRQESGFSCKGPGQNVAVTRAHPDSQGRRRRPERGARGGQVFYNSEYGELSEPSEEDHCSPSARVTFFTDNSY
Sequence of SRPK1 (Q96SB4 whole entry): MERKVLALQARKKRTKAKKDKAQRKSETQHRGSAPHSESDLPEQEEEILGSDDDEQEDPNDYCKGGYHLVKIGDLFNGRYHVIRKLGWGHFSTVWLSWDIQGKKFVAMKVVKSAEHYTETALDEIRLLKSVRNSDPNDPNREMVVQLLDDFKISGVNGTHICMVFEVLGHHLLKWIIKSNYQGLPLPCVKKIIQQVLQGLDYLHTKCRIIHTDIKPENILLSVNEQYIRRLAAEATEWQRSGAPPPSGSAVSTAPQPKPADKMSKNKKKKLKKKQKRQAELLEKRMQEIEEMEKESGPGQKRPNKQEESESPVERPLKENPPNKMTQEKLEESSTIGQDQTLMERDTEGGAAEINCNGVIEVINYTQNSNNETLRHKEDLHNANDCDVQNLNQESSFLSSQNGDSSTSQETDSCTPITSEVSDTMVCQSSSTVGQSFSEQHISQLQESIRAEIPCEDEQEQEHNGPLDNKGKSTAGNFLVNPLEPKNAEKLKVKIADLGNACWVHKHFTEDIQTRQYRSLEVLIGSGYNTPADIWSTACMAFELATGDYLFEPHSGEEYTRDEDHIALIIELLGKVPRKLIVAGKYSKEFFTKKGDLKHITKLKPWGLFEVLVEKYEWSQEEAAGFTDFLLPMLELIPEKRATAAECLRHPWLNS
Sequence of PDGFRb (P09619 33-1106): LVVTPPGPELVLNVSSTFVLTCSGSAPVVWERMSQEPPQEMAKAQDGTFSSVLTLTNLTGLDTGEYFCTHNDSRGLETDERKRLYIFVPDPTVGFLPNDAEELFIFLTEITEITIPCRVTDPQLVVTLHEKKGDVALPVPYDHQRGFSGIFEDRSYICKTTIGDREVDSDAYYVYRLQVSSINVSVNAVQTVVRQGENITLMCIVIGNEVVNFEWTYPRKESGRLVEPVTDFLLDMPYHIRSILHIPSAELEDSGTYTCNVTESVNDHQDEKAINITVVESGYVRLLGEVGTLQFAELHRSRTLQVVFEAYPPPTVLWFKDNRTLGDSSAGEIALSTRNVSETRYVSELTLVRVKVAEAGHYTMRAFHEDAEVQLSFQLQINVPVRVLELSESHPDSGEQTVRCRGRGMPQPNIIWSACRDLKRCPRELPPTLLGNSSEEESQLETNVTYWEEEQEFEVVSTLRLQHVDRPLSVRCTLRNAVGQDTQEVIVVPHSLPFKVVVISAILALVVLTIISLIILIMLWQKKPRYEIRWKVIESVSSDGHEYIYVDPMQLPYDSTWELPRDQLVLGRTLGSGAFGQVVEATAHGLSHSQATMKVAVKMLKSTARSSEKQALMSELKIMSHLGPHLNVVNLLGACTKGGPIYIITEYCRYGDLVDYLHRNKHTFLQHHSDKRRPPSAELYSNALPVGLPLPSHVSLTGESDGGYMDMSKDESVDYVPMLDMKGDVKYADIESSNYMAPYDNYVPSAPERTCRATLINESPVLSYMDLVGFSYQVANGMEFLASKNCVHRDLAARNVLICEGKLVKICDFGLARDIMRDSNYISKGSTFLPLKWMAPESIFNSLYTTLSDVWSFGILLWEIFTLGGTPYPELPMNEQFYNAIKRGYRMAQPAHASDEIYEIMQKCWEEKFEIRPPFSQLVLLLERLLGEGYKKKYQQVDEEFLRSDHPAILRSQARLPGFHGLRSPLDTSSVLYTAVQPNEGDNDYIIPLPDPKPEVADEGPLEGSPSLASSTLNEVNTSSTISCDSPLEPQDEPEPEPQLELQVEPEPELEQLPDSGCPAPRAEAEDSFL
Sequence of LYN B (P07948 1-491 isoform P07948-2): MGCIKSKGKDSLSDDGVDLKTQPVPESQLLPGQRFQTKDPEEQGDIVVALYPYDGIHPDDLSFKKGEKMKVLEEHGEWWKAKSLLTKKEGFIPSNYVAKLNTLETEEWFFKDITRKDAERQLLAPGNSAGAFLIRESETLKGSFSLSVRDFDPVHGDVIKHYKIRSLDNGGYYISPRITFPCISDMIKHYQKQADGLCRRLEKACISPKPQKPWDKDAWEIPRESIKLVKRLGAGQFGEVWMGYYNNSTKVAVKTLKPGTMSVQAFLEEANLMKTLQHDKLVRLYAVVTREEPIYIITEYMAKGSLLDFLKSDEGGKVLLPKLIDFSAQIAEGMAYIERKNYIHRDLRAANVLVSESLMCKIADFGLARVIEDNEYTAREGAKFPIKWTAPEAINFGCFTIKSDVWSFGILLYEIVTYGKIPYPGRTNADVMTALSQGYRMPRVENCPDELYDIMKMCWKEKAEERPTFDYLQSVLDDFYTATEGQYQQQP

Cc1ccc(Nc2ncc3cc(-c4cc(NC(=O)c5cccc(C(F)(F)F)c5)ccc4C)ncc3n2)cn1 [Compound No. 4, N-(4-methyl-3-(2-((6-methylpyridin-3-yl)amino)pyrido[3,4-d]pyrimidin-6-yl)phenyl)-3-(trifluoromethyl)benzamide]
≥ 70%: all assays above
